In patent US9926292B2, “Pyridinyl derivatives, pharmaceutical compositions and uses thereof” (Boehringer Ingelheim International GmbH, priority 2016, dated 2018):
Read-outs that look alike come from different tables or passages of the source.

Experiments:
[1] = target: T1, AOC1 (Homo sapiens, UniProt P19801); assay: AOC1 biochemical assay (Amplex Red)
T1 construct: purchased R&D Systems 8297-AO-010
T1 sequence (P19801 20-751): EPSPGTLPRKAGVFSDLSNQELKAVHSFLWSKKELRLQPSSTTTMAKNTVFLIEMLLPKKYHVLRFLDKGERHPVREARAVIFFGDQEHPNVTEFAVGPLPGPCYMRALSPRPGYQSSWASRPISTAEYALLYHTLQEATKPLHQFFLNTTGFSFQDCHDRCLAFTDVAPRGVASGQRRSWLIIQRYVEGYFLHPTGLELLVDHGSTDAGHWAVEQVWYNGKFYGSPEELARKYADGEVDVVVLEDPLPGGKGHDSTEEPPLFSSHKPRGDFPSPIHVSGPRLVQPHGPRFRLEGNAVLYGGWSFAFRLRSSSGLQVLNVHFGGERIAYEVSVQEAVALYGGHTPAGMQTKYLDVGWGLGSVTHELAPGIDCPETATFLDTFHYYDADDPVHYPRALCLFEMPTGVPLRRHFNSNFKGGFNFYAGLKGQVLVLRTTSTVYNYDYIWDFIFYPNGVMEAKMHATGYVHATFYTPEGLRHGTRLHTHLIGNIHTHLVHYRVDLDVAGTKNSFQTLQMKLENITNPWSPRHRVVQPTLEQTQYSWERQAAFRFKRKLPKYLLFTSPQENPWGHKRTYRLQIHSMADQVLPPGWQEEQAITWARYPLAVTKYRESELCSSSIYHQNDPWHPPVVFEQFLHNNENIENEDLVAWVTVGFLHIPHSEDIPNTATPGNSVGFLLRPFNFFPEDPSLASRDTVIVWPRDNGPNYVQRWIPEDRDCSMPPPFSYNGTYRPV
Description: The Amplex® Red Assay (available from Thermo Fisher Scientific) provides a sensitive method for the detection of H2O2 generated during enzymatic reactions like the amine oxidation catalyzed by AOC1.

[2] = target: T2, AOC3 (Homo sapiens, UniProt Q16853); assay: AOC3 biochemical assay (MAO-Glo)
T2 construct: expressed in transfected cells; host or cells: CHO cells
T2 sequence (Q16853 1-763): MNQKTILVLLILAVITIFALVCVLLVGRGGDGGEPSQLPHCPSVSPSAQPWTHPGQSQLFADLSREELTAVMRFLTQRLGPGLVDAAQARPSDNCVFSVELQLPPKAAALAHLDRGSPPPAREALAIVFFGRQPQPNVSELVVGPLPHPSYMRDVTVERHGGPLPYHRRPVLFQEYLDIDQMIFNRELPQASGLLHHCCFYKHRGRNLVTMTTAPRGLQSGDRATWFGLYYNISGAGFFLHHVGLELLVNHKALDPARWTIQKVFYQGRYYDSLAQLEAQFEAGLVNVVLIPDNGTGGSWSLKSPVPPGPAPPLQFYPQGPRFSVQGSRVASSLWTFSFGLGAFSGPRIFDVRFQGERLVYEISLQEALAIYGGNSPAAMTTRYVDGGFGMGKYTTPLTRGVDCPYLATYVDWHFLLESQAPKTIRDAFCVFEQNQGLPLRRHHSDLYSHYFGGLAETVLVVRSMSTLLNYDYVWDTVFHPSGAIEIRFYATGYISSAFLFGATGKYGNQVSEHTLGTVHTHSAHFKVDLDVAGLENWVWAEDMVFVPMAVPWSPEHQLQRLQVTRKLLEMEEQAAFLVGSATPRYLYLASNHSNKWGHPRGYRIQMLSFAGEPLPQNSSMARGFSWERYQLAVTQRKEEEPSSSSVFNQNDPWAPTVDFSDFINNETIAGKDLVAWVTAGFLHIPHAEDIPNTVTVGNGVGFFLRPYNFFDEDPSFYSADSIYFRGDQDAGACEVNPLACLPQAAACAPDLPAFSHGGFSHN
Protocol: As substrate a derivate of the beetle luciferin ((4S)-4,5-dihydro-2-(6-hydroxybenzothiazolyl)-4-thiazole-carboxylic acid) is used, which is oxidized at a primary amine moiety. After a spontaneous elimination and a catalyzed esterase reaction, the turnover of the luciferine by the luciferase is recorded as a signal of AOC3 activity.
Recombinant CHO cells, overexpressing the human (1500 cells/well), mouse (1000 cells/well) or rat (500 cells/well) AOC3 enzyme are diluted in reaction buffer and added in a volume of 15 μL to the wells. After incubation for 20 minutes at 37° C., 2 μL of MAO substrate (dissolved in DMSO at 16 mM, adjusted to assay concentration in reaction buffer to a final assay concentration of 20 μM) is added and further incubated for 60 minutes at 37° C. The turnover of the substrate is determined by the addition of 20 μL of the detection-mix which was generated by the addition of reconstitution buffer with esterase (PROMEGA, #V1402) to the luciferine detection reagent (PROMEGA, #V1402).

[3] = Table 2, comparison with compounds of EP 2 695 881, read-out: IC50 AOC1
[4] = Table 2, comparison with compounds of EP 2 695 881, read-out: IC50 AOC3

Structure (SMILES) | IC50 ([1]; Table 1, read-out: AOC1 IC50) | IC50 ([2]; Table 1, read-out: AOC3 IC50) | IC50 [1, 3] | IC50 [2, 4] | melting point
N=C(N)NC(=O)OCc1cccc(-c2cnc(OCCCC(F)(F)F)nc2)n1 [Example 36, [6-[2-(4,4,4-trifluorobutoxy)pyrimidin-5-yl]-2-pyridyl]methyl N-carbamimidoylcarbamate] | 1150 nM | 5 nM |  |  | 194 to 197 °C
N=C(N)NC(=O)OCc1cccc(-c2cnc(C3CC3)nc2)n1 [Example 03, [6-(2-cyclopropylpyrimidin-5-yl)-2-pyridyl]methyl N-carbamimidoylcarbamate] | 8030 nM | 8 nM |  |  | 
COc1ncc(-c2cccc(COC(=O)NC(=N)N)n2)cn1 [Example 02] | 8070 nM | 10 nM |  |  | 
N=C(N)NC(=O)OCc1cccc(-c2cnc(O[C@H]3CCOC3)nc2)n1 [Example 15] | 5190 nM | 8 nM |  |  | 
COCCOc1ncc(-c2cccc(COC(=O)NC(=N)N)c2F)cn1 [Ex. 197, p. 243, reference compound] |  |  | 97 nM | 6 nM | 
CCOc1ncc(-c2cccc(COC(=O)NC(=N)N)c2F)cn1 [Ex. 136, p. 235, reference compound] |  |  | 60 nM | 6 nM | 
CC(F)(F)CNc1ncc(-c2cccc(COC(=O)NC(=N)N)n2)cn1 [Example 19] |  | 9 nM |  |  | 
COCCNc1ncc(-c2cccc(COC(=O)NC(=N)N)n2)cn1 [Example 09] | 1410 nM | 7 nM |  |  | 
COCCN(C)c1ncc(-c2cccc(COC(=O)NC(=N)N)n2)cn1 [Example 16] | 718 nM | 9 nM |  |  | 
N=C(N)NC(=O)OCc1cccc(-c2cnc(OCC3CCN(C(=O)C4CC4)CC3)nc2)c1F [Ex. 74, p. 229, reference compound] |  |  | 8 nM | 1 nM | 
CC(Oc1ncc(-c2cccc(COC(=O)NC(=N)N)n2)cn1)c1ccon1 (centres unmarked) [Example 28] | 3290 nM | 15 nM |  |  | 
COCCOc1ncc(-c2cccc(COC(=O)NC(=N)N)n2)cn1 [Example 10] | 3480 nM | 11 nM |  |  | 
CSc1ncc(-c2cccc(COC(=O)NC(=N)N)n2)cn1 [Example 06] | 10200 nM | 15 nM |  |  | 
CCOc1ncc(-c2cccc(COC(=O)NC(=N)N)n2)cn1 [Example 05] | 2390 nM | 15 nM |  |  | 
N=C(N)NC(=O)OCc1cccc(-c2cnc(N3CCOCC3)nc2)c1F [Ex. 81, p. 229, reference compound] |  |  | 174 nM | 1 nM | 
COC1CN(c2ncc(-c3cccc(COC(=O)NC(=N)N)c3F)cn2)C1 [Ex. 63, p. 227, reference compound] |  |  | 100 nM | 1 nM | 
Cc1ncc(-c2cccc(COC(=O)NC(=N)N)n2)cn1 [Example 01] | 7600 nM | 27 nM |  |  | 
CC(=O)N1CCC(COc2ncc(-c3cccc(COC(=O)NC(=N)N)c3F)cn2)CC1 [Ex. 11, p. 221, reference compound] |  |  | 6 nM | 1 nM | 

More lines, main results first:

IC50 ([1]; Table 1, read-out: AOC1 IC50) | IC50 ([2]; Table 1, read-out: AOC3 IC50) | IC50 [1, 3] | IC50 [2, 4] | Structure (SMILES) | melting point
3770 nM | 4 nM |  |  | N#CC1(COc2ncc(-c3cccc(COC(=O)NC(=N)N)n3)cn2)CCC1 [Example 27] | 
1340 nM | 3 nM |  |  | N=C(N)NC(=O)OCc1cccc(-c2cnc(N3CCOCC3)nc2)n1 [Example 14] | 
1590 nM | 4 nM |  |  | N=C(N)NC(=O)OCc1cccc(-c2cnc(OCc3ccon3)nc2)n1 [Example 24, [6-[2-(isoxazol-3-ylmethoxy)pyrimidin-5-yl]-2-pyridyl]methyl N-carbamimidoylcarbamate] | 183 °C
3620 nM | 5 nM |  |  | N=C(N)NC(=O)OCc1cccc(-c2cnc(OCC3(F)CC3)nc2)n1 [Example 17, [6-[2-[(1-fluorocyclopropyl)methoxy]pyrimidin-5-yl]-2-pyridyl]-methyl N-carbamimidoylcarbamate] | 
710 nM | 2 nM |  |  | CN(c1ncc(-c2cccc(COC(=O)NC(=N)N)n2)cn1)C1CCOCC1 [Example 32] | 
483 nM | 3 nM |  |  | CN(c1ncc(-c2cccc(COC(=O)NC(=N)N)n2)cn1)C1CCOC1 (centres unmarked) [Example 25] | 
3190 nM | 4 nM |  |  | N#CC1(COc2ncc(-c3cccc(COC(=O)NC(=N)N)n3)cn2)CC1 [Example 21] | 
2390 nM | 5 nM |  |  | C[C@@H](F)COc1ncc(-c2cccc(COC(=O)NC(=N)N)n2)cn1 [Example 11] | 
1480 nM | 2 nM |  |  | COC1CN(c2ncc(-c3cccc(COC(=O)NC(=N)N)n3)cn2)C1 [Example 13] | 
2010 nM | 5 nM |  |  | CCCOc1ncc(-c2cccc(COC(=O)NC(=N)N)n2)cn1 [Example 07, [6-(2-propoxypyrimidin-5-yl)-2-pyridyl]methyl N-carbamimidoylcarbamate] | 
2690 nM | 4 nM |  |  | C#CCCOc1ncc(-c2cccc(COC(=O)NC(=N)N)n2)cn1 [Example 08, [6-(2-but-3-ynoxypyrimidin-5-yl)-2-pyridyl]methyl N-carbamimidoylcarbamate] | 
899 nM | 3 nM |  |  | N=C(N)NC(=O)OCc1cccc(-c2cnc(OCC3CCOCC3)nc2)n1 [Example 33] | 
1400 nM | 3 nM |  |  | CC(F)(F)COc1ccc(-c2cccc(COC(=O)NC(=N)N)n2)cn1 [Example 18] | 
659 nM | 2 nM |  |  | N=C(N)NC(=O)OCc1cccc(-c2cnc(OCc3cncs3)nc2)n1 [Example 29] | 
612 nM | 3 nM |  |  | N=C(N)NC(=O)OCc1cccc(-c2cnc(OCc3nccs3)nc2)n1 [Example 31] | 
3820 nM | 2 nM |  |  | N=C(N)NC(=O)OCc1cccc(-c2ccc(OCc3ccon3)nc2)n1 [Example 23] | 
1720 nM | 5 nM |  |  | CN(C)c1ncc(-c2cccc(COC(=O)NC(=N)N)n2)cn1 [Example 04] | 
503 nM | 2 nM |  |  | N=C(N)NC(=O)OCc1cccc(-c2cnc(OCc3cnns3)nc2)n1 [Example 34] | 
1020 nM | 3 nM |  |  | N=C(N)NC(=O)OCc1cccc(-c2cnc(OCc3csnn3)nc2)n1 [Example 35] | 
7530 nM | 5 nM |  |  | N=C(N)NC(=O)OCc1cccc(-c2cnc(C3CCOCC3)nc2)n1 [Example 12] | 
322 nM | 3 nM |  |  | N=C(N)NC(=O)OCc1cccc(-c2cnc(OCC3CCN(C(=O)C4CC4)CC3)nc2)n1 [Example 38] | 
227 nM | 3 nM |  |  | CC(=O)N1CCC(COc2ncc(-c3cccc(COC(=O)NC(=N)N)n3)cn2)CC1 [Example 37] | 
978 nM | 3 nM |  |  | N=C(N)NC(=O)OCc1cccc(-c2cnc(OCc3cscn3)nc2)n1 [Example 30] | 
